Patent publication US20230414776A1, “Small Molecule-Nanobody Conjugate Inducers of Proximity (SNACIP) and Preparation Methods and Use thereof” (Harbin Institute of Technology, priority 2022, published 2023)

How the values were obtained:
Assay type in all cases: cell-based
mEYFP = assay: Regulation of GFP mutant mEYFP localization; details: TMP 10 μM, 10 min
Description: Yellow fluorescent protein mEYFP and turquoise fluorescent protein mTurquoise2 are close mutants of the GFP. […] This is an interesting phenomenon, but can also be reasonably explained: Asn146 in GFP, a residue that has a key hydrogen-bonding interaction with the Asn99 residue of GBP, is retained in EGFP and mEYFP, but is mutated to Ile146 in mTurquoise2. […] Therefore, cRGT is an all-rounder, can regulate the proteins of interest to which EGFP, mEYFP and eDHFR are fused, and also has good orthogonality to other fluorescent proteins.

EGFP in HeLa cells = assay: Localization of EGFP to subcellular structures; details: TMP 10 μM, 10 min
Experimental: Treatment of living cells with an SNACIP inducer of dimerization for microscopic imaging: Unless otherwise specified, first a DMEM complete medium of the cells is replaced with a phenol red-free imaging medium of the SNACIP inducer of dimerization of the corresponding concentration, and then imaging is performed after incubation for a given period of time. For cRGT, the concentration represents an effective ratio of cRGT; and near-complete dimerization regulation may be achieved without washing off excess cRGT before imaging.
Many cellular processes are regulated by dynamic distribution of proteins in the cell.

Rac1 = Rac1 localization to plasma membrane and lamellipodia formation by cRGT
Description: A constitutively active mutant EGFP-NES-Rac1Q61LΔCAAX (G-NES-Rac1 for short, green, cytoplasmic distribution) without the plasma membrane targeting ability and lacking the CAAX-box sequence and mCherry-eDHFR-CAAX (red, plasma membrane localized), being co-expressed in living HeLa cells; treatment of the HeLa cells with cRGT will localize the Rac1 mutant to the functional location of the plasma membrane, which in turn induces a signaling cascade process during lamellipodia formation. Confocal micrographs of representative living HeLa cells co-expressing G-NES-Rac1 and mCherry-eDHFR-CAAX, before treatment with cRGT (Pre), after treatment with 24 μM cRGT, and after addition of TMP at a final concentration of 10 μM. Statistical analysis of colocalization between the EGFP channel and the mCherry channel by PCC were shown. Statistical analysis of cell areas before treatment with cRGT (Pre), after treatment with 24 μM cRGT, and after treatment with TMP at a final concentration of 10 μM was also shown. […] Curve comparison of streak analysis of cells after dimerization induced by cRGT and TMP-Cl. […] Abbreviations in the pictures: mCherry is abbreviated as mChe or R; EGFP is abbreviated as G; mTurquoise2 is abbreviated as mTurq or C; eDHFR is abbreviated as ED; HaloTag is abbreviated as HT. All scales: 10 μm. […]

eDHFR and HaloTag = assay: TMP-Cl induced targeting of Rac1 to plasma membrane (eDHFR/HaloTag); details: TMP-Cl 10 μM, 1 h, excess washed off 30 min, HeLa

Row | SMILES | reversal of mEYFP localization (mEYFP) | reversal of Golgi localization (EGFP in HeLa cells) | reversal of mitochondrial localization (EGFP in HeLa cells) | reversal of Rac1 localization and morphology change (Rac1; 10 μM TMP) | average area of cells after TMP addition (Rac1; 10 μM TMP after cRGT) | PCC of colocalization (eDHFR and HaloTag)
1 | COc1cc(Cc2cnc(N)nc2N)cc(OC)c1OC [TMP, trimethoprim] | rapidly reversible | also rapidly reversible | rapidly reversible | completely reversed | decreased significantly | –
2 | COc1cc(Cc2cnc(N)nc2N)cc(OC)c1OCCOCCOCCOCCOCCOCCCCCCCl [TMP-Cl] | – | – | – | – | – | around 0.7
